From US9056108B2, “Method of treating atrial fibrillation” (Gilead Sciences, Inc., priority 2009, dated 2015) come the findings set out here.

For test [1], the system named is female rabbit isolated heart. In words: Monophasic action potential duration (MAPD90) in female rabbit isolated heart. The note with it: ranolazine 0.1-100 μM. Here is the method: Each rabbit was sedated using intramuscular injections of 6 mg/kg xylazine and 40 mg/kg ketamine and then anesthetized using a “cocktail” of ketamine (15 mg/kg)+xylazine (4 mg/kg) in 1.5 ml saline. The ketamine/xylazine cocktail was administered as an i.v. bolus via the marginal ear vein. After anesthesia was confirmed, the thorax was opened and the heart was quickly excised. The heart was placed in a modified Krebs-Henseleit (K-H) physiological saline solution at room temperature. The K-H solution contained (in mmol/L): NaCl 118, KCl 2.8, KH2PO4 1.2, CaCl2 2.5, MgSO4 0.5, pyruvate 2.0, glucose 5.5, Na2EDTA 0.57 and NaHCO3 25. […] CPP was measured (with a Biopac MP 150 pressure transducer, Goleta, Calif.) from a side port of the aortic catheter. […]
Monophasic action potential (MAP) and ECG electrodes from Harvard Apparatus Inc. (Holliston, Mass.) were used to record heart rate (in beats per minute, or bpm), left ventricular MAPs and a bipolar ECG MAP electrodes were pressure contact Ag—AgCl cells attached to a circular holder with springs to keep the electrodes in contact with the LV epicardial surface. […] To ensure that each response to drug had achieved a steady state before a drug concentration was changed, the MAP duration (from onset of depolarization to 100% repolarization) was measured using an on-screen caliper throughout each drug infusion period. […]

For test [2], the system named is coronary-perfused canine left ventricular (LV) preparations. In words: Electrophysiology in isolated coronary-perfused canine left ventricular preparations. The note with it: current in vitro investigation. The procedure:
Experiments were performed using isolated coronary-perfused canine right atrial (RA) and left ventricular (LV) preparations (≈3×1.5×1 cm). Isolation and perfusion of the preparations were as previously described.^9, 15, 16 Briefly, preparations were dissected from hearts removed from anesthetized (sodium pentobarbital) adult mongrel dogs (20-30 kg). Unfolded RA with attached rim of the right ventricle was cannulated and perfused with cold cardioplegic solution (4-8° C.) through the ostium of the right coronary artery; the LV wedge was perfused through a diagonal branch of the left anterior descending coronary artery. Unperfused tissue was removed with a razor blade. […]
Transmembrane action potential (AP) recordings were obtained using floating glass microelectrodes at a sampling rate of 40 kHz. A pseudo-electrocardiogram (ECG) was recorded using two electrodes consisting of Ag/AgCl half cells placed in the Tyrode's solution bathing the preparation, 1.0 to 1.5 cm from the two opposite sides of the atrial or ventricular coronary-perfused preparations. […] Diastolic threshold of excitation (DTE) was determined by increasing stimulus intensity in 0.01 mA steps. Effective refractory period (ERP) was measured by delivering premature stimuli at progressively shorter S1-S2 intervals after every 10 basic beats at a pacing cycle length (CL) of 500 ms (5 ms steps; 2 times DTE). […]

`COc1ccccc1OCC(O)CN1CCN(CC(=O)Nc2c(C)cccc2C)CC1` (racemic) [Ranolazine, (±)-N-(2,6-dimethylphenyl)-4-[2-hydroxy-3-(2-methoxyphenoxy)-propyl]-1-piperazineacetamide]: in test [1], the “Increase in MAPD90” value amounted to 22±6%. Further, in test [1] (from 177±10), the MAPD90 came out at 215 ± 6 ms. Take `CCCCc1oc2ccc(NS(C)(=O)=O)cc2c1C(=O)c1ccc(OCCCN(CCCC)CCCC)cc1` [Dronedarone, N-(2-Butyl-3-(p-(3-(dibutylamino)propoxy)benzoyl)-5-benzofuranyl)methanesulfonamide]: in test [2], the “Prolongation of ventricular ERP” value turned out to be 4%.
